In patent US12410191B2, “Macrolide derivatives, preparation method and application thereof” (ZHEJIANG HISUN PHARMACEUTICAL CO., LTD., priority 2019, dated 2025):
Read-outs that look alike come from different tables or passages of the source.

How the values were obtained:
[1] = amide bond, pentafluorophenyl diphenylphosphinate (FDPP), dichloromethane, 25.0 °C
[2] = Pharmacokinetic study on ICR mice; format: in vivo
Method: ICR mice, male, 29.0 g to 33.8g, purchased from Beijing Charles River Laboratory Animal Technology Co., Ltd.
Intravenous injection group: an appropriate amount of drug was weighed, and added with mixed solvent (DMA: 30% Solutol HS-15: Saline=10:10:80 (v/v/v)) to prepare the drug with a final concentration of 0.2 mg/mL.
Oral gavage administration group: an appropriate amount of drug was weighed, added with an appropriate amount of sodium carboxymethyl cellulose (CMC-Na, containing 0.5% Tween 80), vortex shaked, and ultrasonically prepared into […] suspension.
For ICR mice, each compound to be tested was divided into an intravenous injection group (9 mice in each group) and an intragastric group (9 mice in each group). The ICR mice were fasted overnight and then administered by orbital intravenous injection (administration dose of 1 mg/kg, and administration volume of 5 mL/kg) and administered by intragastric injection (administration dose of 5 mg/kg, and administration volume of 10 mL/kg), and ate 4 hours after administration. 3. Operation
About 0.2 mL of blood was collected via jugular vein before administration and 0.083 hour, 0.25 hour, 0.5 hour, 1 hour, 2 hours, 4 hours, 8 hours, 12 hours and 24 hours after administration, and heparin sodium was used for anticoagulation. The collected blood samples were placed on ice, and plasma was separated by centrifugation (centrifugation condition: 1500 g, 10 minutes). The collected plasma was stored at −40° C. to −20° C. before analysis.
LC-MS/MS was used to determine the contents of different compounds to be tested in mouse plasma after intravenous injection and intragastric administration.

## C[C@H]1Nc2ccn3ncc(c3n2)C(=O)NCCC2=Cc3cc(F)cc1c3O2
[1]; from C[C@@H](Nc1ccn2ncc(C(=O)O)c2n1)c1cc(F)cc2cc(CCN)oc12, DIPEA, 172.8 mM, 16.0 h
  ring closure, yield of all isomers: 25.4%

## C[C@H]1Nc2ccn3ncc(c3n2)C(=O)NCC2(C)Cc3cc(F)cc1c3O2 (stereo partly shown)
[1]; from C[C@@H](Nc1ccn2ncc(C(=O)O)c2n1)c1cc(F)cc2c1OC(C)(CN)C2, DIPEA, 154.8 mM, 16.0 h
  ring closure, yield of all isomers: 5.9%

## C[C@H]1Nc2ccn3ncc(c3n2)C(=O)NCC[C@H]2Cc3cc(F)cc1c3O2
[1]; from C[C@@H](Nc1ccn2ncc(C(=O)O)c2n1)c1cc(F)cc2c1OC(CCN)C2, DIPEA, 33.0 mM, 16.0 h, 2 steps
  ring closure, yield of all isomers: 23.1%

## C[C@H]1Nc2ccn3ncc(c3n2)C(=O)NCC[C@@]2(C)Cc3cc(F)cc1c3O2
[1]; from C[C@@H](Nc1ccn2ncc(C(=O)O)c2n1)c1cc(F)cc2c1O[C@@](C)(CCN)C2, N,N-diisopropylethylamine, 131.0 mM
  ring closure, yield of all isomers: 18.2%

## C[C@H]1Nc2ccn3ncc(c3n2)C(=O)NC[C@]2(C)Cc3cc(F)cc1c3O2
[1]; from C[C@@H](Nc1ccn2ncc(C(=O)O)c2n1)c1cc(F)cc2c1O[C@](C)(CN)C2, N,N-diisopropylethylamine, 231.0 mM
  ring closure, yield of all isomers: 17.6%

## C[C@H]1Nc2ccn3ncc(c3n2)C(=O)NC[C@@]2(C)Cc3cc(F)cc1c3O2 [Example 8, (3R,11R)-6-fluoro-3,11-dimethyl-10-oxa-2,13,17,18,21-pentaazapentacyclo[13.5.2.1^8,11.0^4,9.0^18,22]tricosa-1(21),4,6,8,15(22),16,19-heptaen-14-one]
[2]
  bioavailability relative to repotrectinib: 4.1 times
[2]; 5 mg/kg oral
  AUC0-∞ relative to repotrectinib: 10.6 times
  Cmax relative to repotrectinib: 14.7 times
[1]; from C[C@@H](Nc1ccn2ncc(C(=O)O)c2n1)c1cc(F)cc2c1O[C@@](C)(CN)C2, N,N-diisopropylethylamine, 172.0 mM
  ring closure, yield of all isomers: 26.3%

## C[C@H]1Nc2ccn3ncc(c3n2)C(=O)NC[C@@H]2COc3cc(F)cc1c3O2
[1]; from C[C@@H](Nc1ccn2ncc(C(=O)O)c2n1)c1cc(F)cc2c1O[C@H](CN)CO2, DIPEA, 215.1 mM, 16.0 h
  ring closure, yield of all isomers: 42%
